ChEMBL document CHEMBL5032530, “Discovery of Benzocyclic Sulfone Derivatives as Potent CXCR2 Antagonists for Cancer Immunotherapy” (J Med Chem, 2021)
Calls of active or inactive are those of the source. No cut-off for these calls is given here.

Columns and labels:
[1] = biological target: T1, C-X-C chemokine receptor type 2 (Homo sapiens, UniProt P25025); assay: Antagonist activity at human CXCR2 expressed in HEK293 cells assessed as inhibition of CXCL8-induced beta-arrestin recruitment preincubated for 30 mins followed by addition of agonist incubated for 90 mins by beta arrestin assay; type: functional, cell-based
T1 sequence (P25025 whole entry): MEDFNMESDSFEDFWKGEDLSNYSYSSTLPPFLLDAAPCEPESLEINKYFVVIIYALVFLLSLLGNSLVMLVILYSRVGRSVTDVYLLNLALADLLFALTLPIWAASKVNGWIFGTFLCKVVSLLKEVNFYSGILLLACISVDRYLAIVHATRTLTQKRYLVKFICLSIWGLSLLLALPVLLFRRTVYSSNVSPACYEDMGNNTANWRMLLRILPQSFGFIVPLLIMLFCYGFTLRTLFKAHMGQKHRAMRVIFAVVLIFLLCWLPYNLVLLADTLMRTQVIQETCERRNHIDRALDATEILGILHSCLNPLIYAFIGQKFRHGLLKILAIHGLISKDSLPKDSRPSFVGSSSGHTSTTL

[2] = biological target: T1, C-X-C chemokine receptor type 2; assay: Displacement of [I-125]-interleukin-8 against human recombinant CXCR2 expressed in CHO-K1 cells incubated for 60 mins by radio ligand binding assay; type: cell-based
[3] = biological target: C-C chemokine receptor type 2 (Homo sapiens) (UniProt P41597); assay: Agonist activity against CCR2 (unknown origin) assessed as induction of beta-arrestin 2 recruitment at 10 microM by beta arrestin assay relative to control; type: functional
Sequence of C-C chemokine receptor type 2 (Homo sapiens) (P41597 whole entry, looked up): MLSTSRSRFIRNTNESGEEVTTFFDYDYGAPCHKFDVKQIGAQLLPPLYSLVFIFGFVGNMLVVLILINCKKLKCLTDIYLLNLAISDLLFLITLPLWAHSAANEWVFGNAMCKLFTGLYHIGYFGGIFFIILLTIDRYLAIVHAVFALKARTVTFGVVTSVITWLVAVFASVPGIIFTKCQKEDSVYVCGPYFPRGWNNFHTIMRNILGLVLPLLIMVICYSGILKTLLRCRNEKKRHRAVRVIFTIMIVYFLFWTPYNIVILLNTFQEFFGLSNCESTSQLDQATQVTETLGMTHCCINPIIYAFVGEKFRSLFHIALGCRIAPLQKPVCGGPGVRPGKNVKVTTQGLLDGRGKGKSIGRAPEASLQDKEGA

[4] = biological target: C-C chemokine receptor type 2 (Homo sapiens) (UniProt P41597); assay: Antagonist activity against CCR2 (unknown origin) assessed as inhibition of beta-arrestin 2 recruitment at 10 microM by beta arrestin assay relative to control; type: functional; set-up: scale not given: the % may be the effect or the level left
[5] = biological target: C-C chemokine receptor type 3 (Homo sapiens) (UniProt P51677); assay: Agonist activity against CCR3 (unknown origin) assessed as induction of beta-arrestin 2 recruitment at 10 microM by beta arrestin assay relative to control; type: functional
Sequence of C-C chemokine receptor type 3 (Homo sapiens) (P51677 whole entry): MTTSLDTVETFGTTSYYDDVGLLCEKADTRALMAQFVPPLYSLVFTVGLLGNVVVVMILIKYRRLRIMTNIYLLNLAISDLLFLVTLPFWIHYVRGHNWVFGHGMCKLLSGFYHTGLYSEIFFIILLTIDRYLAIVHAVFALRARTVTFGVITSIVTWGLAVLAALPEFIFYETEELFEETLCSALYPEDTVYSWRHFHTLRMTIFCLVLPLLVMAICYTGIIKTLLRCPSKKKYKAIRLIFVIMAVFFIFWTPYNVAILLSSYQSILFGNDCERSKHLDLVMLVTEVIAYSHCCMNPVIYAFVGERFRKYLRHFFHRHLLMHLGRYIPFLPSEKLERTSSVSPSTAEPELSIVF

[6] = biological target: C-C chemokine receptor type 3 (Homo sapiens) (UniProt P51677); assay: Antagonist activity against CCR3 (unknown origin) assessed as inhibition of beta-arrestin 2 recruitment at 10 microM by beta arrestin assay relative to control; type: functional; set-up: scale not given: the % may be the effect or the level left
[7] = biological target: C-C chemokine receptor type 6 (Homo sapiens) (UniProt P51684); assay: Agonist activity against CCR6 (unknown origin) assessed as induction of beta-arrestin 2 recruitment at 10 microM by beta arrestin assay relative to control; type: functional
Sequence of C-C chemokine receptor type 6 (Homo sapiens) (P51684 whole entry): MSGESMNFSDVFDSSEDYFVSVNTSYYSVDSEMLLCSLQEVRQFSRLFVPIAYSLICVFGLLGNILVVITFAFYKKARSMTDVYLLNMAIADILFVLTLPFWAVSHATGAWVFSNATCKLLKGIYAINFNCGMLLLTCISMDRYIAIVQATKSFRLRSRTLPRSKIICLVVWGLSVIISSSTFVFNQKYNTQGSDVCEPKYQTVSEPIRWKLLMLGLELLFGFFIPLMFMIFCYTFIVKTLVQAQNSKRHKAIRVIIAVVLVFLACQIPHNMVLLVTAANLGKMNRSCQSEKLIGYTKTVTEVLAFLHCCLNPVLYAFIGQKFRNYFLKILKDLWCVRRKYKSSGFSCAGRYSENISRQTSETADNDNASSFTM

[8] = biological target: C-C chemokine receptor type 7 (Homo sapiens) (UniProt P32248); assay: Antagonist activity against CCR7 (unknown origin) assessed as inhibition of beta-arrestin 2 recruitment at 10 microM by beta arrestin assay relative to control; type: functional; set-up: scale not given: the % may be the effect or the level left
Sequence of C-C chemokine receptor type 7 (Homo sapiens) (P32248 whole entry): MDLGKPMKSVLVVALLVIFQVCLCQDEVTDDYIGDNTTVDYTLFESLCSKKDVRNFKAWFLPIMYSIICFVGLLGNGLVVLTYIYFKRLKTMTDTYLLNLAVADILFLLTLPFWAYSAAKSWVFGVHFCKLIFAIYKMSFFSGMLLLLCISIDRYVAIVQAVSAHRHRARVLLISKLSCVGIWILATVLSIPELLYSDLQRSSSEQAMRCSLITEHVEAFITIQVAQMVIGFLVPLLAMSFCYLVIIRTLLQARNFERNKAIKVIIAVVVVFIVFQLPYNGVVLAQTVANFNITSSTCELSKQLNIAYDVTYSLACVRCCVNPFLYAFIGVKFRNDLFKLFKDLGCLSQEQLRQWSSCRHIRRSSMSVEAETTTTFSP

[9] = biological target: C-C chemokine receptor type 8 (Homo sapiens) (UniProt P51685); assay: Agonist activity against CCR8 (unknown origin) assessed as induction of beta-arrestin 2 recruitment at 10 microM by beta arrestin assay relative to control; type: functional
Sequence of C-C chemokine receptor type 8 (Homo sapiens) (P51685 whole entry): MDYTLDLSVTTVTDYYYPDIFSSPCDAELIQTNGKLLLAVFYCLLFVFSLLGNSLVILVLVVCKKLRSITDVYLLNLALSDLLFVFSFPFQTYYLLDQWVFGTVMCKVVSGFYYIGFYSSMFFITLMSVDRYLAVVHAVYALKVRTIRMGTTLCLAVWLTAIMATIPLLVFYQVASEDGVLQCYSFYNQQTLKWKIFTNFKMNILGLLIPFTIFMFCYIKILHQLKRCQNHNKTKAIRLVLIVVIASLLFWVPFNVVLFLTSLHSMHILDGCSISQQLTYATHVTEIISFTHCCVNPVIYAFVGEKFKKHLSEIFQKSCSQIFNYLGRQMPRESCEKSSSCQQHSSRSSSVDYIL

[10] = biological target: C-C chemokine receptor type 8 (Homo sapiens) (UniProt P51685); assay: Antagonist activity against CCR8 (unknown origin) assessed as inhibition of beta-arrestin 2 recruitment at 10 microM by beta arrestin assay relative to control; type: functional; set-up: scale not given: the % may be the effect or the level left
[11] = biological target: C-C chemokine receptor type 9 (Homo sapiens) (UniProt P51686); assay: Agonist activity against CCR9 (unknown origin) assessed as induction of beta-arrestin 2 recruitment at 10 microM by beta arrestin assay relative to control; type: functional
Sequence of C-C chemokine receptor type 9 (Homo sapiens) (P51686 whole entry): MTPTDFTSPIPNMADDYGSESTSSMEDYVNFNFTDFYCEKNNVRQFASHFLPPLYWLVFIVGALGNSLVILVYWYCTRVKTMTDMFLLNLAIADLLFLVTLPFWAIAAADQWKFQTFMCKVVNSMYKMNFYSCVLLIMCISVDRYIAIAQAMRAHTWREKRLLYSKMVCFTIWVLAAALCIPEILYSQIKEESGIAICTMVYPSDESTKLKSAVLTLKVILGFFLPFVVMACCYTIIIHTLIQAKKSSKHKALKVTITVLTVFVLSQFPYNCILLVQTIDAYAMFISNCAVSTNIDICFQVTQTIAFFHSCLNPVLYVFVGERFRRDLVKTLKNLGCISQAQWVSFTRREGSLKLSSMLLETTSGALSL

[12] = biological target: C-X-C chemokine receptor type 2 (Homo sapiens) (UniProt P25025); assay: Agonist activity against CXCR2 (unknown origin) assessed as induction of beta-arrestin 2 recruitment at 10 microM by beta arrestin assay relative to control; type: functional
[13] = biological target: C-X-C chemokine receptor type 2 (Homo sapiens) (UniProt P25025); assay: Antagonist activity against CXCR2 (unknown origin) assessed as inhibition of beta-arrestin 2 recruitment at 10 microM by beta arrestin assay relative to control; type: functional; set-up: scale not given: the % may be the effect or the level left; details: filed as antagonist
[14] = biological target: C-X-C chemokine receptor type 4 (Homo sapiens) (UniProt P61073); assay: Antagonist activity against CXCR4 (unknown origin) assessed as inhibition of beta-arrestin 2 recruitment at 10 microM by beta arrestin assay relative to control; type: functional; set-up: scale not given: the % may be the effect or the level left
Sequence of C-X-C chemokine receptor type 4 (Homo sapiens) (P61073 whole entry): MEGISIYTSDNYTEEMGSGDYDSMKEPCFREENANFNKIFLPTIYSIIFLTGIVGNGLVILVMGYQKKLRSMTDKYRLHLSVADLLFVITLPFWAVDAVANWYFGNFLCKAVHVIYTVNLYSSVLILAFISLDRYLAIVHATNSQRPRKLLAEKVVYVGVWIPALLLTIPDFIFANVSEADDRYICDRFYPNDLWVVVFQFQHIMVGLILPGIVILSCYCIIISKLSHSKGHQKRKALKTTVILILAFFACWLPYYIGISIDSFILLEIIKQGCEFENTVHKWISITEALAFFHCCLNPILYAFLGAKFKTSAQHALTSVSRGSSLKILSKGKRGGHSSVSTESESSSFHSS

[15] = biological target: C-X-C chemokine receptor type 5 (Homo sapiens) (UniProt P32302); assay: Agonist activity against CXCR5 (unknown origin) assessed as induction of beta-arrestin 2 recruitment at 10 microM by beta arrestin assay relative to control; type: functional
Sequence of C-X-C chemokine receptor type 5 (Homo sapiens) (P32302 whole entry): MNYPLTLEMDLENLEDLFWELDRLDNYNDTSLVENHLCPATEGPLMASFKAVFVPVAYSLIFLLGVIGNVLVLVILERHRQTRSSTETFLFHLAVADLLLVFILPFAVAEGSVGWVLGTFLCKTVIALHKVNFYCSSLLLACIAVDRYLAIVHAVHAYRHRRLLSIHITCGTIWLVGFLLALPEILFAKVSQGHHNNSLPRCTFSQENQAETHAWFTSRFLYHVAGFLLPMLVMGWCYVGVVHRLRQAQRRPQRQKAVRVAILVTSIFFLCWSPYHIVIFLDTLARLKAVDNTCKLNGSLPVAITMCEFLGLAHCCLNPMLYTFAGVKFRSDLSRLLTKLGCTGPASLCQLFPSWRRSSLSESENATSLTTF

[16] = biological target: C-X-C chemokine receptor type 6 (Homo sapiens) (UniProt O00574); assay: Antagonist activity against CXCR6 (unknown origin) assessed as inhibition of beta-arrestin 2 recruitment at 10 microM by beta arrestin assay relative to control; type: functional; set-up: scale not given: the % may be the effect or the level left
Sequence of C-X-C chemokine receptor type 6 (Homo sapiens) (O00574 whole entry, looked up): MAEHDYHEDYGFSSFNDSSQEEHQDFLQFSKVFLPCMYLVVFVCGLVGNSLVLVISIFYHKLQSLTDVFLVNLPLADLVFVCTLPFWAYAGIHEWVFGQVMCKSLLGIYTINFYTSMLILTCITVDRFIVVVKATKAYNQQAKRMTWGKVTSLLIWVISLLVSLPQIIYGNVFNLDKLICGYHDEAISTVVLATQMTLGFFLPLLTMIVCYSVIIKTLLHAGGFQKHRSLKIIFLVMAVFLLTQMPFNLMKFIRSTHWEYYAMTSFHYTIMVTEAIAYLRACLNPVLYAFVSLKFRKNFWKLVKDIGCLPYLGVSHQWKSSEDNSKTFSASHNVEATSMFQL

[17] = biological target: Atypical chemokine receptor 3 (Homo sapiens) (UniProt P25106); assay: Antagonist activity against CXCR7 (unknown origin) assessed as inhibition of beta-arrestin 2 recruitment at 10 microM by beta arrestin assay relative to control; type: functional; set-up: scale not given: the % may be the effect or the level left
Sequence of Atypical chemokine receptor 3 (Homo sapiens) (P25106 whole entry): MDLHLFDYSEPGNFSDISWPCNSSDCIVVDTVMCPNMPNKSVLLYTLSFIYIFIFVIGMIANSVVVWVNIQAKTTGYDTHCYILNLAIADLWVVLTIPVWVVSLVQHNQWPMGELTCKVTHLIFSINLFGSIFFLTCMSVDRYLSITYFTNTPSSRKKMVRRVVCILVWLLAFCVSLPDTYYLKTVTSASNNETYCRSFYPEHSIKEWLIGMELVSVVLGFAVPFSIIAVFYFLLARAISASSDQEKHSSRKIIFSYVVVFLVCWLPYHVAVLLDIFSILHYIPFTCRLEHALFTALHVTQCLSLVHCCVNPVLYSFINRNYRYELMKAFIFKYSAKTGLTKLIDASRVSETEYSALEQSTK

[18] = AUC (0 to t) in ICR mouse at 30 mg/kg, po measured upto 48 hrs; type: ADME, organism-based; set-up: route oral, dose 30 mg/kg, time <=48; details: in vivo
[19] = Half life in ICR mouse at 3 mg/kg, iv measured upto 48 hrs; type: ADME, organism-based; details: in vivo
[20] = Half life in ICR mouse at 30 mg/kg, po measured upto 48 hrs; type: ADME, organism-based; details: ICR, in vivo
[21] = Clearance in ICR mouse at 3 mg/kg, iv measured upto 48 hrs; type: ADME, organism-based; details: in vivo
[22] = Oral bioavailability in ICR mouse at 30 mg/kg measured upto 48 hrs; type: ADME, organism-based; details: in vivo
PANC-1 = assay: Cytotoxicity against human PanC-1 cells assessed as reduction in cell viability measured after 72 hrs by CCK8 assay; type: cell-based; details: PANC-1, 72 h
BXPC-3 = assay: Cytotoxicity against human BxPC3 cells assessed as reduction in cell viability measured after 72 hrs by CCK8 assay; type: cell-based; details: BXPC-3, 72 h
[23] = Cytotoxicity against human PBMC cells assessed as reduction in cell viability measured after 72 hrs by CCK8 assay; type: cell-based
Panc02 [24] = assay: Antitumour activity against mouse Panc02 cells xenografted in mouse assessed as reduction in infiltration of neutrophils into tumor tissue at 3 mg/kg, po bid measured after 15 days by flow cytometry analysis; type: functional, organism-based; details: time 15.0 day
Panc02 [25] = assay: Antitumour activity against mouse Panc02 cells xenografted in mouse assessed as change in CD45 expressing immune cells infiltration into tumor tissue at 30 mg/kg, po bid measured after 15 days by flow cytometry analysis (reference value: 2.3%); type: functional; details: time 15 day
Panc02 [26] = assay: Antitumour activity against mouse Panc02 cells xenografted in mouse assessed as change in Gr1 expressing immune cells infiltration into tumor tissue at 30 mg/kg, po bid measured after 15 days by flow cytometry analysis (reference value: 27.4%); type: functional; details: time 15 day
Panc02 [27] = assay: Antitumour activity against mouse Panc02 cells xenografted in mouse assessed as change in CD11b expressing immune cells infiltration into tumor tissue using LY6G antibody at 10 mg/kg, po bid measured after 15 days by flow cytometry analysis (reference value: 29.7%); type: functional; details: time 15 day
Panc02 [28] = assay: Antitumour activity against mouse Panc02 cells xenografted in mouse assessed as change in CD11b expressing immune cells infiltration into tumor tissue using LY6G antibody at 30 mg/kg, po bid measured after 15 days by flow cytometry analysis (reference value: 29.7%); type: functional; details: time 15 day
Panc02 [29] = assay: Antitumour activity against mouse Panc02 cells xenografted in mouse assessed as change in CD11b expressing immune cells infiltration into tumor tissue using LY6C antibody at 30 mg/kg, po bid measured after 15 days by flow cytometry analysis (reference value: 20.5%); type: functional; details: time 15 day

## Cc1c(F)cccc1NC(=O)Nc1ccc2c(c1O)S(=O)(=O)CCC2
[1]
  IC50: 0.095 µM
[2]
  Ki: 1.24 µM
[3]
  Activity: < 10%
[4]
  Activity: 17%
[5]
  Activity: < 10%
[6]
  Activity: 13%
[7]
  Activity: < 10%
[8]
  Activity: 20%
[9]
  Activity: < 10%
[10]
  Activity: < 10%
[11]
  Activity: < 10%
[12]
  Activity: < 10%
[13]
  Activity: 109%
[14]
  Activity: 12%
[15]
  Activity: < 10%
[16]
  Activity: 17%
[17]
  Activity: 15%
[18]
  AUC(0-t) at 48 h: 0.218 µg·h/mL
[19]
  half-life: 4.11 h
[20]
  half-life: 4.94 h
[21]
  clearance: 8.22 L/h/kg
[22]
  bioavailability: 6.1%
PANC-1
  IC50: > 10 µM
BXPC-3
  IC50: > 10 µM
[23]
  IC50: > 10 µM
Panc02 [24]
  Activity: Active
Panc02 [25]
  Activity: 42.3%
Panc02 [26]
  Activity: 7.5%
Panc02 [27]
  Activity: 14%
Panc02 [28]
  Activity: 7.6%
Panc02 [29]
  Activity: 15.3%
